# Several values for one entry are separate records, joined by “and”; a condition that tells them apart may be missing. Equal entries are not always repeated.
# Tested on: CMV
# Experiment: Study HDP-CDV-201: prevention or control of CMV infection in R+ HSCT recipients (efficacy)
# Type: in vivo, human (adult allogeneic HSCT recipients)
# Conditions: for Time to CMV DNAemia (≧100 copies/mL), Mean / Number of Subjects who had CMV DNAemia (≧100 copies/mL) by the end of study / Time to CMV DNAemia (≧100 copies/mL), Median: CMV DNA negative at baseline; for Difference (HDP-CDV minus placebo) in rate of CMV DNAemia ≧1,000 copies/mL / Rate of CMV DNAemia ≧1,000 copies/mL during the treatment period: CMV modified strata: positive; for Discontinuation: Emergence of CMV disease / Discontinuation: Initiation of alternate CMV therapy: active treatment period
# Method: The clinical study of the current invention (HDP-CDV-201) was a 9-11 week randomized, placebo-controlled, double-blind, dose-escalation study (40 mg weekly [QW], 100 mg QW, 200 mg QW, 200 mg twice-weekly [BIW], and 100 mg BIW) of HDP-CDV for the prevention of CMV infection post-HCT. Treatment was initiated at the time of engraftment and continued until Week 13 post-HCT. HDP-CDV, at various doses, was active and well tolerated in the prevention CMV infection or disease.
# Clinical Studies of HDP-CDV were performed and described in detail in the following Examples. For example, HDP-CDV-201 is a placebo-controlled, dose-escalating trial in HSCT CMV (R+) recipients, evaluating the ability of HDP-CDV to prevent or control CMV infection was carried out. Five cohorts were established in which participants or subjects received either placebo or the HDP-CDV orally, in doses ranging from 40 mg weekly (QW) to 200 mg twice weekly (BIW). Subjects who were post-HSCT were enrolled at the time of engraftment and randomized to HDP-CDV or placebo (3 to 1 ratio) and received blinded therapy until approximately 100 day post-transplantation. HDP-CDV doses were 40 mg QW, 100 mg QW, 200 mg QW, 200 mg BIW and 100 mg BIW. Escalation to the next dose was decided by the data monitoring committee after review of the safety data from the previous Cohort. Subjects who developed CMV disease or CMV infection requiring pre-emptive therapy with local standard of care were discontinued from blinded therapy and followed for 4 weeks. Subjects who completed treatment with blinded therapy were followed for 8 weeks post-therapy.
# The primary endpoint was defined as the incidence of CMV disease at any time during treatment or CMV DNAemia≧200 copies/mL at the end of treatment. All subjects who received at least one dose of drug/placebo and had at least one efficacy evaluation post baseline were included in the primary analysis, regardless of their CMV DNAemia status (negative or positive) at baseline (mITT population). Results for the pooled HDP-CDV Cohorts and for each Cohort separately were analyzed versus that for pooled placebo.
# The primary efficacy measure for this study was treatment failure, defined as the occurrence of CMV infection, defined as CMV DNAemia>200 copies/mL at the End of Treatment or diagnosis of CMV disease at any time during the treatment period. For the analysis, the following definitions apply:
# For subjects who completed the treatment phase of the study, the End of Treatment was defined as the latest assessment from date of the last dose of study drug and up to 7 days for QW dosing, or the date of the last dose of study drug and up to 4 days for BIW dosing. For subjects who discontinued during the treatment phase of the study, the End of Treatment was defined as the date of the last dose of study drug.
# The time to event was defined as the period between FDD and date of first occurrence of the event of interest (inclusive). The events included onset of CMV DNAemia, onset of CMV disease, and discontinuation because of excluded anti-CMV medications. Time to event/onset was derived as (the event/onset date—FDD)+1.
# As detailed in the Statistical Analysis Plan, a modified CMV stratum was defined prior to conducting the statistical analysis based upon polymerase chain reaction (PCR) results from the central laboratory. If any positive CMV DNA value in plasma was collected before the first dose of study drug (including Screening, Pre-dose, (combined Screening/Pre-dose), CMV for stratification, and FDD), then the subject was placed into the modified CMV positive (≧100 copies/mL) stratum, otherwise the subject was in the modified CMV negative stratum. […]
# [1] = 200 mg BIW/QW, modified CMV negative stratum
# [2] = 200 mg BIW, CMV modified strata: negative
# [3] = 200 mg BIW, modified CMV negative stratum
# [4] = 200 mg QW, CMV modified strata: negative
smiles,measurement,setting,value
CCCCCCCCCCCCCCCCOCCCOP(=O)(O)COC(CO)Cn1ccc(N)nc1=O (stereo not drawn) [HDP-CDV],"Time to CMV DNAemia (≧100 copies/mL), Mean","100 mg QW, treatment period, censored values not included",38.8 days
same,Number of Subjects who had CMV DNAemia (≧100 copies/mL) by the end of study,"100 mg QW, whole study period",8
same,"Time to CMV DNAemia (≧100 copies/mL), Mean","100 mg QW, whole study period",53.4 days
same,"Time to CMV DNAemia (≧100 copies/mL), Median","100 mg QW, whole study period",38.5 days
same,"% CMV Event Rate: Incidence of CMV DNAemia >100 copies/mL During Treatment (Fisher analysis, ref 14.3.3.2.1)",[1],4 (18.2%) subjects (%)
same,"% CMV Event Rate: Incidence of CMV DNAemia ≧1,000 copies/mL at any time during treatment",[1],0 subjects (%)
same,Difference (HDP-CDV minus placebo) in infection rate,[2],−16.2%
same,"Difference (HDP-CDV minus placebo) in rate of CMV DNAemia ≧1,000 copies/ml",[2],−31.9%
same,"Rate of CMV DNAemia ≧1,000 copies/ml during the treatment period",[2],0%
same,Rate of CMV Disease or End of Treatment CMV Infection,[2],13.6%
same,"Difference (HDP-CDV minus placebo) in rate of CMV DNAemia ≧1,000 copies/mL",200 mg BIW,−58.3%
same,"Rate of CMV DNAemia ≧1,000 copies/mL during the treatment period",200 mg BIW,25%
same,Rate of CMV Disease or End of Treatment CMV Infection,"200 mg BIW, aGVHD randomization strata: negative",24.1%
same,Difference (HDP-CDV minus placebo) in infection rate,"200 mg BIW, aGVHD strata: negative",−7.9%
same,Discontinuation: Emergence of CMV disease,200 mg BIW,0 Subject n (%)
same,Discontinuation: Initiation of alternate CMV therapy,200 mg BIW,5 (16.7%) Subject n (%)
same,Difference (HDP-CDV minus placebo) in rate of CMV DNAemia ≧1000 copies/mL,"200 mg BIW, mITT",−35.7%
same,Difference (HDP-CDV minus placebo) in rate of CMV disease or end of treatment CMV infection,"200 mg BIW, mITT",−14.0%
same,Subjects Receiving Antiviral Therapy and/or had CMV disease,"200 mg BIW, mITT",5 (16.7%) subjects (%)
same,Subjects without a CMV event,"200 mg BIW, mITT",25 (83.3%) subjects (%)
same,"Time to Antiviral Therapy, Median","200 mg BIW, mITT",15.0 days
same,Rate of CMV Disease or End of Treatment CMV Infection (≧200 copies/ml),"200 mg BIW, mITT, missing=infection",23% and 23.3%
same,Rate of CMV DNAemia ≧1000 copies/mL during the treatment period,"200 mg BIW, mITT, post hoc",7% and 6.7%
same,"Time to Antiviral Therapy, Mean","200 mg BIW, mITT, censored values not included",21.6 days
same,"Subjects Who Had CMV-related Event (CMV disease, CMV DNAemia ≧1,000 c/mL or initiation of anti-CMV treatment)",[3],3 (13.6%) subjects (%)
same,Subjects without a CMV-related event,[3],20 (86.4%) subjects (%)
same,Developed CMV DNAemia (≧100 copies/mL) during the treatment period,"200 mg BIW, plasma CMV DNA negative at baseline, mITT",4 (17.4%) N(%)
same,"Time to CMV DNAemia (≧100 copies/mL), Median","200 mg BIW, treatment period",25.5 days
same,"Time to CMV DNAemia (≧100 copies/mL), Mean","200 mg BIW, treatment period, censored values not included",24.8 days
same,Median Survival Time to CMV DNAemia (Kaplan-Meier),"200 mg BIW, whole study period",130 days
same,Number of Subjects who had CMV DNAemia (≧100 copies/mL) by the end of study,"200 mg BIW, whole study period",9
same,"Time to CMV DNAemia (≧100 copies/mL), Mean","200 mg BIW, whole study period",49.0 days
same,"Time to CMV DNAemia (≧100 copies/mL), Median","200 mg BIW, whole study period",42.0 days
same,Difference (HDP-CDV minus placebo) in infection rate,[4],−9.1%
same,"Difference (HDP-CDV minus placebo) in rate of CMV DNAemia ≧1,000 copies/ml",[4],−25.0%
same,"Rate of CMV DNAemia ≧1,000 copies/ml during the treatment period",[4],6.9%
same,Rate of CMV Disease or End of Treatment CMV Infection,[4],20.7%
same,"Difference (HDP-CDV minus placebo) in rate of CMV DNAemia ≧1,000 copies/mL",200 mg QW,−33.3%
same,"Rate of CMV DNAemia ≧1,000 copies/mL during the treatment period",200 mg QW,50.0%
same,Rate of CMV Disease or End of Treatment CMV Infection,"200 mg QW, aGVHD randomization strata: negative",30.8%
same,Difference (HDP-CDV minus placebo) in infection rate,"200 mg QW, aGVHD strata: negative",−1.3%
same,Discontinuation: Emergence of CMV disease,200 mg QW,0 Subject n (%)
same,Discontinuation: Initiation of alternate CMV therapy,200 mg QW,7 (17.9%) Subject n (%)
same,Difference (HDP-CDV minus placebo) in rate of CMV DNAemia ≧1000 copies/mL,"200 mg QW, mITT",−24.4%
same,Difference (HDP-CDV minus placebo) in rate of CMV disease or end of treatment CMV infection,"200 mg QW, mITT",−6.5%
